From ChEMBL document CHEMBL3044662, “Synthesis and potential antibacterial activity of new rhodanine-3-acetic acid derivatives” (2013)
Converted amounts (≈) assume the structure as drawn.

Experiments:
Type in all cases: functional
[1] = system: Escherichia coli; experiment: Antibacterial activity against Escherichia coli CCARM 1356 assessed as growth inhibition after 20 hr by two-fold serial dilution method; conditions: CCARM 1356, 20 h
[2] = system: Escherichia coli; experiment: Antibacterial activity against Escherichia coli CCARM 1924 assessed as growth inhibition after 20 hr by two-fold serial dilution method; conditions: CCARM 1924, 20 h
[3] = system: Staphylococcus aureus; experiment: Antibacterial activity against Staphylococcus aureus KCTC 503 assessed as growth inhibition after 20 hr by two-fold serial dilution method; conditions: KCTC 503, 20 h
[4] = system: Staphylococcus aureus; experiment: Antibacterial activity against Staphylococcus aureus subsp. aureus RN4220 assessed as growth inhibition after 20 hr by two-fold serial dilution method; conditions: RN4220, 20 h
[5] = system: Staphylococcus aureus; experiment: Antibacterial activity against quinolene-resistant Staphylococcus aureus CCARM 3519 clinical isolate assessed as growth inhibition after 20 hr by two-fold serial dilution method; conditions: CCARM 3519, 20 h
[6] = system: Staphylococcus aureus; experiment: Antibacterial activity against quinolene-resistant Staphylococcus aureus CCARM 3505 clinical isolate assessed as growth inhibition after 20 hr by two-fold serial dilution method; conditions: CCARM 3505, 20 h
[7] = system: Staphylococcus aureus; experiment: Antibacterial activity against methicillin-resistant Staphylococcus aureus CCARM 3506 clinical isolate assessed as growth inhibition after 20 hr by two-fold serial dilution method; conditions: CCARM 3506, 20 h
[8] = system: Staphylococcus aureus; experiment: Antibacterial activity against methicillin-resistant Staphylococcus aureus CCARM 3167 clinical isolate assessed as growth inhibition after 20 hr by two-fold serial dilution method; conditions: CCARM 3167, 20 h

| SMILES | MIC [1] | MIC [2] | MIC [3] | MIC [4] | MIC [5] | MIC [6] | MIC [7] | MIC [8] |
| --- | --- | --- | --- | --- | --- | --- | --- | --- |
| O=C(O)CN1C(=O)/C(=C/c2ccc3cc(OCc4ccccc4)ccc3c2)SC1=S | > 64 µg/mL | > 64 µg/mL | 64 µg/mL (≈ 147 µM) | 64 µg/mL (≈ 147 µM) | 64 µg/mL (≈ 147 µM) | 64 µg/mL (≈ 147 µM) | 64 µg/mL (≈ 147 µM) | 64 µg/mL (≈ 147 µM) |
| COc1ccc(COc2ccc3cc(/C=C4\SC(=S)N(CC(=O)O)C4=O)ccc3c2)cc1 | > 64 µg/mL | > 64 µg/mL | 8 µg/mL (≈ 17.2 µM) | 4 µg/mL (≈ 8.59 µM) | 8 µg/mL (≈ 17.2 µM) |  | 2 µg/mL (≈ 4.3 µM) | 2 µg/mL (≈ 4.3 µM) |
| CCn1cc(C(=O)O)c(=O)c2cc(F)c(N3CCNCC3)cc21 [NORFLOXACIN] | 16 µg/mL (≈ 50.1 µM) | 16 µg/mL (≈ 50.1 µM) | 2 µg/mL (≈ 6.26 µM) | 2 µg/mL (≈ 6.26 µM) | > 64 µg/mL | > 64 µg/mL | 4 µg/mL (≈ 12.5 µM) | 8 µg/mL (≈ 25.1 µM) |
| O=C(O)CN1C(=O)/C(=C/c2ccc3cc(OCc4ccc(C(F)(F)F)cc4)ccc3c2)SC1=S | > 64 µg/mL | > 64 µg/mL | 4 µg/mL (≈ 7.94 µM) | 4 µg/mL (≈ 7.94 µM) | 64 µg/mL (≈ 127 µM) | 64 µg/mL (≈ 127 µM) | 2 µg/mL (≈ 3.97 µM) | 2 µg/mL (≈ 3.97 µM) |
| O=C(O)CN1C(=O)/C(=C/c2ccc3cc(OCc4cccc(Br)c4)ccc3c2)SC1=S | > 64 µg/mL | > 64 µg/mL | 64 µg/mL (≈ 124 µM) | 32 µg/mL (≈ 62.2 µM) | > 64 µg/mL | > 64 µg/mL | 64 µg/mL (≈ 124 µM) | 64 µg/mL (≈ 124 µM) |
| O=C(O)CN1C(=O)/C(=C/c2ccc3cc(OCc4ccc(F)cc4)ccc3c2)SC1=S | > 64 µg/mL | > 64 µg/mL | 4 µg/mL (≈ 8.82 µM) | 4 µg/mL (≈ 8.82 µM) | 4 µg/mL (≈ 8.82 µM) | 4 µg/mL (≈ 8.82 µM) | 2 µg/mL (≈ 4.41 µM) | 4 µg/mL (≈ 8.82 µM) |
| Cc1onc(-c2ccccc2)c1C(=O)N[C@@H]1C(=O)N2[C@@H]1SC(C)(C)[C@@H]2C(=O)O [OXACILLIN] | > 64 µg/mL | > 64 µg/mL | 1 µg/mL (≈ 2.49 µM) | 1 µg/mL (≈ 2.49 µM) | 1 µg/mL (≈ 2.49 µM) | 1 µg/mL (≈ 2.49 µM) | > 64 µg/mL | > 64 µg/mL |
| O=C(O)CN1C(=O)/C(=C/c2ccc3cc(OCc4ccc(Br)cc4)ccc3c2)SC1=S | > 64 µg/mL | > 64 µg/mL | 2 µg/mL (≈ 3.89 µM) | 2 µg/mL (≈ 3.89 µM) | 4 µg/mL (≈ 7.78 µM) | 4 µg/mL (≈ 7.78 µM) | 1 µg/mL (≈ 1.94 µM) | 1 µg/mL (≈ 1.94 µM) |
| O=C(O)CN1C(=O)/C(=C/c2ccc3cc(OCc4ccc(Cl)cc4)ccc3c2)SC1=S | > 64 µg/mL | > 64 µg/mL | 4 µg/mL (≈ 8.51 µM) | 2 µg/mL (≈ 4.26 µM) | 4 µg/mL (≈ 8.51 µM) | 4 µg/mL (≈ 8.51 µM) | 2 µg/mL (≈ 4.26 µM) | 2 µg/mL (≈ 4.26 µM) |
| CN(C)c1ccc(COc2ccc3cc(/C=C4\SC(=S)N(CC(=O)O)C4=O)ccc3c2)cc1 | > 64 µg/mL | > 64 µg/mL | 64 µg/mL (≈ 134 µM) | 64 µg/mL (≈ 134 µM) | > 64 µg/mL | > 64 µg/mL | > 64 µg/mL | > 64 µg/mL |
| COc1ccc(COc2ccc3cc(/C=C4\SC(=S)N(CC(=O)O)C4=O)ccc3c2)cc1OC | > 64 µg/mL | > 64 µg/mL | 8 µg/mL (≈ 16.1 µM) | 4 µg/mL (≈ 8.07 µM) | 8 µg/mL (≈ 16.1 µM) | 8 µg/mL (≈ 16.1 µM) | 8 µg/mL (≈ 16.1 µM) | 8 µg/mL (≈ 16.1 µM) |
| Cc1ccc(COc2ccc3cc(/C=C4\SC(=S)N(CC(=O)O)C4=O)ccc3c2)cc1 | > 64 µg/mL | > 64 µg/mL | 4 µg/mL (≈ 8.9 µM) | 2 µg/mL (≈ 4.45 µM) | 8 µg/mL (≈ 17.8 µM) | 4 µg/mL (≈ 8.9 µM) | 4 µg/mL (≈ 8.9 µM) | 2 µg/mL (≈ 4.45 µM) |
| O=C(O)CN1C(=O)/C(=C/c2ccc3cc(OCc4ccc([N+](=O)[O-])cc4)ccc3c2)SC1=S | > 64 µg/mL | > 64 µg/mL | 32 µg/mL (≈ 66.6 µM) | 64 µg/mL (≈ 133 µM) | 4 µg/mL (≈ 8.32 µM) | 8 µg/mL (≈ 16.6 µM) | 8 µg/mL (≈ 16.6 µM) | 4 µg/mL (≈ 8.32 µM) |

Second part, led by results:

| MIC [1] | MIC [2] | MIC [3] | MIC [4] | SMILES | MIC [5] | MIC [6] | MIC [7] | MIC [8] |
| --- | --- | --- | --- | --- | --- | --- | --- | --- |
| > 64 µg/mL | > 64 µg/mL | > 64 µg/mL | > 64 µg/mL | Cc1ccc(COc2ccc3cc(/C=C4\SC(=S)N(CC(=O)O)C4=O)ccc3c2)cc1C |  |  |  |  |
| > 64 µg/mL | > 64 µg/mL | > 64 µg/mL | > 64 µg/mL | O=C(O)CN1C(=O)/C(=C/c2ccc3cc(OCc4c(Cl)cccc4Cl)ccc3c2)SC1=S |  |  |  |  |
| > 64 µg/mL | > 64 µg/mL | > 64 µg/mL | > 64 µg/mL | COc1cccc(COc2ccc3cc(/C=C4\SC(=S)N(CC(=O)O)C4=O)ccc3c2)c1 |  |  |  |  |
| > 64 µg/mL | > 64 µg/mL | > 64 µg/mL | > 64 µg/mL | O=C(O)CN1C(=O)/C(=C/c2ccc3cc(OCc4cccc(Cl)c4)ccc3c2)SC1=S |  |  |  |  |
| > 64 µg/mL | > 64 µg/mL | > 64 µg/mL | > 64 µg/mL | O=C(O)CN1C(=O)/C(=C/c2ccc3cc(OCc4ccccc4Br)ccc3c2)SC1=S |  |  |  |  |
| > 64 µg/mL | > 64 µg/mL | > 64 µg/mL | > 64 µg/mL | O=C(O)CN1C(=O)CSC1=S [RHODANINE-3-ACETIC ACID] |  |  |  |  |
| > 64 µg/mL | > 64 µg/mL | > 64 µg/mL | > 64 µg/mL | O=C(O)CN1C(=O)/C(=C/c2ccc3cc(OCc4ccc(Cl)c(Cl)c4)ccc3c2)SC1=S |  |  |  |  |
| > 64 µg/mL | > 64 µg/mL | > 64 µg/mL | > 64 µg/mL | O=C(O)CN1C(=O)/C(=C/c2ccc3cc(OCc4ccc(I)cc4)ccc3c2)SC1=S |  |  |  |  |
| > 64 µg/mL | > 64 µg/mL | > 64 µg/mL | > 64 µg/mL | N#Cc1ccccc1COc1ccc2cc(/C=C3\SC(=S)N(CC(=O)O)C3=O)ccc2c1 |  |  |  |  |
| > 64 µg/mL | > 64 µg/mL | > 64 µg/mL | > 64 µg/mL | O=C(O)CN1C(=O)/C(=C/c2ccc3cc(OCc4cccc(F)c4)ccc3c2)SC1=S |  |  |  |  |
| > 64 µg/mL | > 64 µg/mL | > 64 µg/mL | > 64 µg/mL | O=C(O)CN1C(=O)/C(=C/c2ccc3cc(O)ccc3c2)SC1=S |  |  |  |  |
| > 64 µg/mL | > 64 µg/mL | > 64 µg/mL | > 64 µg/mL | O=C(O)CN1C(=O)/C(=C/c2ccc3cc(OCc4ccccc4Cl)ccc3c2)SC1=S |  |  |  |  |
| > 64 µg/mL | > 64 µg/mL | > 64 µg/mL | > 64 µg/mL | N#Cc1ccc(COc2ccc3cc(/C=C4\SC(=S)N(CC(=O)O)C4=O)ccc3c2)cc1 |  |  |  |  |
| > 64 µg/mL | > 64 µg/mL | > 64 µg/mL | > 64 µg/mL | O=C(O)CN1C(=O)/C(=C/c2ccc3cc(OCc4cccc(C(F)(F)F)c4)ccc3c2)SC1=S |  |  |  |  |
| > 64 µg/mL | > 64 µg/mL | > 64 µg/mL | > 64 µg/mL | O=C(O)CN1C(=O)/C(=C/c2ccc3cc(OCc4ccc(Cl)cc4Cl)ccc3c2)SC1=S |  |  |  |  |
